Patent publication US12139487B2, “Compounds and uses thereof” (Foghorn Therapeutics Inc., priority 2022, dated 2024)

Tests used:
BRM = molecular target: T1, BRM (Homo sapiens, UniProt P51531); assay: ATPase catalytic activity assay (ADP-Glo), BRM; format: biochemical; conditions: Table 10; for Ratio (BRG1 IC50 (μM) divided by BRM IC50 (μM)): ATPase assay, selectivity BRG1/BRM; for IC50: ATPase catalytic activity assay (ADP-Glo)
T1 construct: made in house; host or cells: High Five insect cells
Outline: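 ADP-Glo luminescence measures ADP produced by BRM ATPase (30 nM) during 1 h at room temperature. ATP is 400 μM, with 20 nM salmon sperm DNA as cofactor. Buffer: 20 mM Tris pH 8, 20 mM MgCl2, 50 mM NaCl, 0.1% Tween-20, 1 mM DTT.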

BRG-1 = molecular target: T2, BRG-1 (Homo sapiens, UniProt P51532); assay: ATPase catalytic activity assay (ADP-Glo), BRG-1; format: biochemical; conditions: Table 10, read-out: BRG1 IC50
T2 construct: made in house; host or cells: High Five insect cells
T2 sequence (P51532 whole entry): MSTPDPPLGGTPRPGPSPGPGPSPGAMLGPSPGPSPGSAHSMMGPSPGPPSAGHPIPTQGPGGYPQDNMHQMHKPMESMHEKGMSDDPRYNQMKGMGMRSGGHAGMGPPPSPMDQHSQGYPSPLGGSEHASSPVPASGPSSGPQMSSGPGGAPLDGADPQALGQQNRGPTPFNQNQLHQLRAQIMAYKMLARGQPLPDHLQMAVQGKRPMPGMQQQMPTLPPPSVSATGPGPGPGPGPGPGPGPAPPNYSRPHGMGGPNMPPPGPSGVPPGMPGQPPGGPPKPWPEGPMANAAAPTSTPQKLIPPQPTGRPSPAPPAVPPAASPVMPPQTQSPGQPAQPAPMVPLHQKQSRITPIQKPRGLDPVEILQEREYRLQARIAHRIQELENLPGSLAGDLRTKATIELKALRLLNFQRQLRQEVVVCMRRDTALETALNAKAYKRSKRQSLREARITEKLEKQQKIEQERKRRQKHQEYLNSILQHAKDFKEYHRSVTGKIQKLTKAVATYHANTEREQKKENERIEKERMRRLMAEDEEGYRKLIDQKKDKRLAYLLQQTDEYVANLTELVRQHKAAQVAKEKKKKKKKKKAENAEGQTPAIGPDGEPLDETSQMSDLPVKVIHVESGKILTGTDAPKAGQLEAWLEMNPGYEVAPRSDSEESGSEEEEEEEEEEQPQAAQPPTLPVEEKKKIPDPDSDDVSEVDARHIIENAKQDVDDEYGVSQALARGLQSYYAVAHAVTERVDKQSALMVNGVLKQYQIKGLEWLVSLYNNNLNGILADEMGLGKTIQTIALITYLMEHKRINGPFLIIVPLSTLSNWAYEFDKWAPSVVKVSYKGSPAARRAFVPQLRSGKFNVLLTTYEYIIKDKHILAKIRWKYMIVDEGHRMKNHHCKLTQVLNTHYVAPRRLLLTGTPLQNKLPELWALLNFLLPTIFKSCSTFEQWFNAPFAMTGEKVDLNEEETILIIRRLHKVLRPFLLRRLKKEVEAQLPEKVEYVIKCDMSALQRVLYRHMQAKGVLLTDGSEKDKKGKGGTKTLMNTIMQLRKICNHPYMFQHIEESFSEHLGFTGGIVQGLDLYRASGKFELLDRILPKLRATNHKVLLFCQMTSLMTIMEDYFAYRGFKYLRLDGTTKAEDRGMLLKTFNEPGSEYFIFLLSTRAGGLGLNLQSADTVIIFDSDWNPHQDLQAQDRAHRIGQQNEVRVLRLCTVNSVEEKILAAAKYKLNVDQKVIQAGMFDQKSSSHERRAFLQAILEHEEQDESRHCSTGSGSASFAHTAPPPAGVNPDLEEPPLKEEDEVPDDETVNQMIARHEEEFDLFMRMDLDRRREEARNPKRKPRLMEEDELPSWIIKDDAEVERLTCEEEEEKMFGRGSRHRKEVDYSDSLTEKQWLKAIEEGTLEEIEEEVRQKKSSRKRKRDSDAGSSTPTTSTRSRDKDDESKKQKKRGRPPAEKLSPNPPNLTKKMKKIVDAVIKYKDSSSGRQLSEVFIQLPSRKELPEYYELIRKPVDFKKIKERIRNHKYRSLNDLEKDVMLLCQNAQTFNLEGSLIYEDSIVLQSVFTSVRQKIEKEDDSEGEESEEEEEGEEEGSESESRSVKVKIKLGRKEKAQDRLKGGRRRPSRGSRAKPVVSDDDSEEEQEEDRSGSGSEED
Outline: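 ADP produced by BRG-1 was quantified by luciferase luminescence. A 60 min room-temperature ADP-to-ATP conversion followed a 40 min ATP-depletion step.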

T1 sequence (P51531 whole entry): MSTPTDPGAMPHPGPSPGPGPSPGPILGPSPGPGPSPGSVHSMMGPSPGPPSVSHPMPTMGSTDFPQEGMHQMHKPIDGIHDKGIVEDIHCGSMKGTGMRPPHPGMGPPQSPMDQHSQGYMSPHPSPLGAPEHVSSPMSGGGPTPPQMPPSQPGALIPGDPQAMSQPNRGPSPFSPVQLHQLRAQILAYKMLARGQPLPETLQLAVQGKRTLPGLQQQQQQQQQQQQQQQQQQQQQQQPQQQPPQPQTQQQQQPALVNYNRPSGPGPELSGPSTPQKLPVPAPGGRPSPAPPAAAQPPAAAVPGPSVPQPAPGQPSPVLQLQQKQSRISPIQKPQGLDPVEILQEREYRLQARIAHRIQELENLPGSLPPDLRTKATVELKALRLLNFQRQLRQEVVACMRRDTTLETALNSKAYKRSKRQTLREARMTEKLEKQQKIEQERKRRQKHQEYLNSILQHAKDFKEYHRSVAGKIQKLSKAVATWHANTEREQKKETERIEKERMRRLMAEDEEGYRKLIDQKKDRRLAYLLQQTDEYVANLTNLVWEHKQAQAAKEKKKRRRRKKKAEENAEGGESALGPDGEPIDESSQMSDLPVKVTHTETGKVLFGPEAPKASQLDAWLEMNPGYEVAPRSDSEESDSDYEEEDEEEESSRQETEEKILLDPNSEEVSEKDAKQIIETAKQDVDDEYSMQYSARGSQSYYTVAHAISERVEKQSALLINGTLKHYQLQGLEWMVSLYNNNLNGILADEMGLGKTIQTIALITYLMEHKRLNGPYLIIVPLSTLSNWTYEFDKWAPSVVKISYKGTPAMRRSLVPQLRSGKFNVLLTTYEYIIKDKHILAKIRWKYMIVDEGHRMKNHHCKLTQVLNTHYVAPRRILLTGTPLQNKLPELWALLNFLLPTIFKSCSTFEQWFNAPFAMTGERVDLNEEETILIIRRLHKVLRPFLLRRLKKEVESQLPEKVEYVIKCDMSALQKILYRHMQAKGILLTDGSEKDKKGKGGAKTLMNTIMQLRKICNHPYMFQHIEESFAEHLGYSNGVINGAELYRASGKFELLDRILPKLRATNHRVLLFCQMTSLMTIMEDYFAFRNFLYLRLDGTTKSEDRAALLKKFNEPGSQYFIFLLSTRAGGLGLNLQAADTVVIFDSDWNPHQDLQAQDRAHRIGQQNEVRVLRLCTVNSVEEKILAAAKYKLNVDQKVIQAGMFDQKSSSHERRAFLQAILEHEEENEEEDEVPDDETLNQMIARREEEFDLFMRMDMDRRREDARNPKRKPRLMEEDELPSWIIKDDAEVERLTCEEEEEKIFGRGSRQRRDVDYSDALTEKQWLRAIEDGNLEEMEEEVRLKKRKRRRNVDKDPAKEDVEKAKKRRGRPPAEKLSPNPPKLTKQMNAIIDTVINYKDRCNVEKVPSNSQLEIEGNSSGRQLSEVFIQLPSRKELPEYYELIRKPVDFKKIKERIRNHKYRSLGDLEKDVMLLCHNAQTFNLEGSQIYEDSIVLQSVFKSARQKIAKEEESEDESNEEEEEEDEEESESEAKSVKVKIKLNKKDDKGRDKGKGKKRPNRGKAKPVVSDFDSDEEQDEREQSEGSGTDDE

Row | Structure (SMILES) | Ratio (BRG1 IC50 (μM) divided by BRM IC50 (μM)) (BRM) | IC50 (BRM) [nM] | IC50 (BRG-1) [nM]
1 | COCC1(c2cccc(-c3ccc4cnc(CNC(=O)c5cc(F)c6c(c5)S(=O)(=O)[C@@H](F)CCO6)cc4n3)n2)CC1 [Compound 275] | 14.02 | 9.1 | 128
2 | C[C@@H]1CN(c2cccc(-c3ccc4cnc(CNC(=O)c5ccc6c(c5)S(=O)(=O)[C@@H](F)CN(C)C6)cc4n3)n2)C[C@H](C)O1 (single isomer, unassigned) [Compound 317] | 7.78 | 227 | 1760
3 | O=C(NCc1cc2nc(N3CCOc4ccc(N5CC[C@H](F)C5)nc43)ccc2cn1)c1cc(F)c2c(c1)S(=O)(=O)[C@@H](F)CCO2 [Compound 57] | 17.61 | 2.5 | 36.8
4 | C[C@@H]1CN(c2cccc(-c3ccc4cnc(CNC(=O)c5cc(F)c6c(c5)S(=O)(=O)[C@@H](F)CO[C@@H]6C)cc4n3)n2)C[C@H](C)O1 [Compound 134] | 20.63 | 4.6 | 98.6
5 | CCOc1ccnc2c1CCCN2c1ccc2cnc(CNC(=O)c3cc(F)c4c(c3)S(=O)(=O)[C@@H](F)CCO4)cc2n1 [Compound 4] | 12.99 | 1.1 | 16.9
6 | [2H]C1([2H])Oc2c(F)cc(C(=O)NCc3cc4nc(N5CCOc6cc(N7CC(F)C7)cnc65)ccc4cn3)cc2S(=O)(=O)[C@@]([2H])(F)C1([2H])[2H] [Compound 171] | 16.27 | 5.5 | 89.1
7 | O=C(NCc1cc2cc(-c3cccc(OC(F)F)n3)ccc2cn1)c1cc(Cl)c2c(c1)S(=O)(=O)[C@@H](F)COC2 [Compound 235, (2R)-6-chloro-N-[[6-[6-(difluoromethoxy)-2-pyridyl]-3-isoquinolyl]methyl]-2-fluoro-1,1-dioxo-3,5-dihydro-2H-4,1λ6-benzoxathiepine-8-carboxamide] | 23.91 | 7.4 | 163
8 | CC(F)(F)c1cnc2c(c1)OCCN2c1ccc2cnc(CNC(=O)c3cc(F)c4c(c3)S(=O)(=O)[C@@H](F)CCO4)cc2n1 [Compound 176] | 17.02 | 5.6 | 123
9 | O=C(NCc1cc2cc(-c3cccc(OC(F)F)n3)ccc2nn1)c1cc(Cl)c2c(c1)S(=O)(=O)[C@@H](F)COC2 [Compound 196] | 38.53 | 99.8 | 3840
10 | COc1nc([C@H](C)F)ccc1-c1ccc2cnc(CNC(=O)c3cc(Cl)c4c(c3)S(=O)(=O)[C@@H](F)COC4)cc2n1 [Compound 174] | 28.19 | 5.6 | 158
11 | O=C(NCc1cc2nc(N3CCCc4c(OC(F)F)ccnc43)ccc2cn1)c1cc(F)c2c(c1)S(=O)(=O)[C@@H](F)CCO2 [Compound 169] | 10.91 | 5.3 | 58.3
12 | O=C(NCc1cc2cc(-c3cncc(N4CCCC4)n3)ccc2cn1)c1cc(F)c2c(c1)S(=O)(=O)[C@@H](F)CCO2 [Compound 101] | 23.62 | 3.5 | 83.4
13 | CCn1ccc2c(-c3ccc4cnc(CNC(=O)c5cc(F)c6c(c5)S(=O)(=O)[C@@H](F)CCO6)cc4n3)ccnc21 [Compound 256] | 13.83 | 8.1 | 112
14 | CO[C@@H]1C[C@H]1c1cnc2c(c1)OCCN2c1ccc2cnc(CNC(=O)c3cc(F)c4c(c3)S(=O)(=O)[C@@H](F)CCO4)cc2n1 [Compound 152] | 11.35 | 5 | 53
15 | COc1cccc(-c2ccc3cnc(CNC(=O)c4cc(F)c5c(c4)S(=O)(=O)[C@@H](F)COC5)cc3n2)n1 [Compound 270] | 22.02 | 8.9 | 174
16 | O=C(NCc1cc2nc(-c3cccc(N4CCC4)n3)ccc2cn1)c1cc(F)c2c(c1)S(=O)(=O)[C@@H](F)COC2 [Compound 111] | 19.81 | 3.9 | 79.1
17 | CCOc1ccc(-c2ccc3cnc(CNC(=O)c4cc(F)c5c(c4)S(=O)(=O)[C@@H](F)CCO5)cc3n2)nc1[C@H]1CC1(F)F [Compound 313] | 36.05 | 13 | 554
18 | O=C(NCc1cc2nc(N3CCCc4cc(OC(F)F)cnc43)ccc2cn1)c1cc(F)c2c(c1)S(=O)(=O)[C@@H](F)CCO2 [Compound 229] | 10.03 | 7.2 | 72.3
19 | O=C(NCc1cc2nc(N3CCOc4ccc(C5CC5)nc43)ccc2cn1)c1cc(F)c2c(c1)S(=O)(=O)[C@@H](F)COC2 [Compound 72] | 21.76 | 2.8 | 66.6
20 | C#Cc1cnc2c(c1)OCCN2c1ccc2cnc(CNC(=O)c3cc(F)c4c(c3)S(=O)(=O)[C@@H](F)CCO4)cc2n1 [Compound 281] | 10.16 | 9.3 | 94.3

Row | Structure (SMILES) | Ratio (BRG1 IC50 (μM) divided by BRM IC50 (μM)) (BRM) | IC50 (BRM) [nM] | IC50 (BRG-1) [nM]
21 | O=C(NCc1cc2nc(N3CCOc4ccc(N5CC(F)C5)nc43)ccc2cn1)c1cc(F)c2c(c1)S(=O)(=O)[C@@H](F)CCO2 [Compound 246] | 23.74 | 7.8 | 217
22 | O=C(NCc1cc2nc(-c3cccc(C4CC4)n3)ccc2cn1)c1cc(Cl)c2c(c1)S(=O)(=O)[C@@H](F)COC2 [Compound 302] | 30.11 | 10 | 348
23 | O=C(NCc1cc2nc(N3CCOc4ccc([C@@H]5C[C@H]5F)nc43)ccc2cn1)c1cc(F)c2c(c1)S(=O)(=O)[C@@H](F)COC2 [Compound 207] | 18.77 | 6.2 | 113
24 | COc1nc(C)ccc1-c1ccc2cnc(CNC(=O)c3cc(F)c4c(c3)S(=O)(=O)[C@@H](F)CCO4)cc2n1 [Compound 245] | 17.91 | 7.8 | 166
25 | CCOc1nc(C(F)F)ccc1-c1ccc2cnc(CNC(=O)c3cc(F)c4c(c3)S(=O)(=O)[C@@H](F)CCO4)cc2n1 [Compound 151] | 16.49 | 4.9 | 76.6
26 | COCc1ccnc2c1OCCN2c1ccc2cnc(CNC(=O)c3cc(F)c4c(c3)S(=O)(=O)[C@@H](F)CCO4)cc2n1 [Compound 147] | 11.98 | 4.8 | 58.1
27 | O=C(NCc1cc2nc(N3CCOc4cc(C5CC5)cnc43)ccc2cn1)c1cc(Cl)c2c(c1)S(=O)(=O)[C@@H](F)COC2 [Compound 61] | 21.08 | 2.6 | 48.5
28 | O=C(NCc1cc2cc(N3CCOc4cc(C(F)F)cnc43)ccc2cn1)c1cc(F)c2c(c1)S(=O)(=O)[C@@H](F)CCO2 [Compound 303] | 10.70 | 10.1 | 108
29 | Cc1cc(C(=O)NCc2cc3nc(-c4cccc(OC(F)F)n4)ccc3cn2)cc2c1COC[C@H](F)S2(=O)=O [Compound 206] | 31.39 | 6.2 | 197
30 | CCN(CC)c1cnc2c(c1)OCCN2c1ccc2cnc(CNC(=O)c3cc(F)c4c(c3)S(=O)(=O)[C@@H](F)CCO4)cc2n1 [Compound 99] | 12.19 | 3.5 | 42.7
31 | O=C(NCc1cc2cc(-c3cncc(C4CC4)n3)ccc2cn1)c1cc(F)c2c(c1)S(=O)(=O)[C@@H](F)CCO2 [Compound 230] | 18.99 | 7.2 | 153
32 | CCOc1cnc2c(c1)OCCN2c1ccc2cnc(CNC(=O)c3cc(F)c4c(c3)S(=O)(=O)[C@@H](F)CCO4)cc2n1 [Compound 247] | 13.39 | 7.8 | 98.5
33 | C[C@@H]1CN(c2cccc(-c3ccc4cnc(CNC(=O)c5ccc6c(c5)S(=O)(=O)[C@H](F)CCN6C)cc4n3)n2)C[C@H](C)O1 [Compound 319] | 25.94 | 192 | 4990
34 | C[C@@H]1CN(c2cccc(-c3ccc4cnc(CNC(=O)c5cc(F)c6c(c5)S(=O)(=O)[C@@H](F)CO6)cc4n3)n2)C[C@H](C)O1 [Compound 326] | 28.75 | 122 | 3510
35 | C[C@@H]1C[C@@H]1c1cnc2c(c1)OCCN2c1ccc2cnc(CNC(=O)c3cc(F)c4c(c3)S(=O)(=O)[C@@H](F)CCO4)cc2n1 [Compound 192] | 11.37 | 5.9 | 66.5
36 | O=C(NCc1cc2nc(N3CCCc4sc(C(F)F)nc43)ccc2cn1)c1cc(F)c2c(c1)S(=O)(=O)[C@@H](F)CCO2 [Compound 217] | 9.68 | 6.5 | 63.4
37 | O=C(NCc1cc2nc(-c3ccc(C(F)F)c(C4CC4)n3)ccc2cn1)c1cc(F)c2c(c1)S(=O)(=O)[C@@H](F)CCO2 [Compound 60] | 18.66 | 2.6 | 53.1
38 | Cc1cc(C(=O)NCc2cc3nc(N4CCOc5cc(N6CC[C@H]6C)cnc54)ccc3cn2)cc2c1COC[C@H](F)S2(=O)=O [Compound 28] | 22.66 | 1.8 | 42.2
39 | CCOCc1cnc2c(c1)OCCN2c1ccc2cnc(CNC(=O)c3cc(F)c4c(c3)S(=O)(=O)[C@@H](F)CCO4)cc2n1 [Compound 154] | 15.21 | 5 | 68
